Measurements taken from PubChem BioAssay AID248 (DTP/NCI, 2004).
“And” between values parts separate entries of the source, which are not always exact repeats. Equal entries are not always repeated. Toxic doses and inconclusive results are not listed. Rule as the data show it: active = T/C of 150% or more; inactive = T/C below 125%.

System: L1210 leukemia ip in BDF1 mice, survival T/C
Assay: NCI In Vivo Anticancer Drug Screen. Data for tumor model L1210 Leukemia (intraperitoneal) in B6D2F1 (BDF1) mice
Settings: endpoint: mean survival time, higher = longer survival
Summary of the method: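 Transplanted-tumor mice were given test agent; controls received vehicle only. Survival readings from the two groups were divided (treated over control).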

[1] = dose: 100.0 mg/kg/injection, schedule: Q01DX009 (ip), vehicle: saline with Tween-80
[2] = dose: 100.0 mg/kg/injection, schedule: Q04DX003 (ip), vehicle: saline
[3] = dose: 200.0 mg/kg/injection, schedule: Q04DX003 (ip), vehicle: saline
[4] = dose: 400.0 mg/kg/injection, schedule: Q04DX003 (ip), vehicle: saline
[5] = dose: 100.0 mg/kg/injection, schedule: Q04DX003 (ip), vehicle: saline with Tween-80
[6] = dose: 200.0 mg/kg/injection, schedule: Q04DX003 (ip), vehicle: saline with Tween-80
[7] = dose: 400.0 mg/kg/injection, schedule: Q04DX003 (ip), vehicle: saline with Tween-80
[8] = dose: 100.0 mg/kg/injection, schedule: Q04DX003 (ip), vehicle: Klucel (hydroxypropylcellulose) (HPC)
[9] = dose: 200.0 mg/kg/injection, schedule: Q04DX003 (ip), vehicle: Klucel (hydroxypropylcellulose) (HPC)
[10] = dose: 400.0 mg/kg/injection, schedule: Q04DX003 (ip), vehicle: Klucel (hydroxypropylcellulose) (HPC)
[11] = dose: 200.0 mg/kg/injection, schedule: Q01DX009 (ip), vehicle: Klucel (hydroxypropylcellulose) (HPC)
[12] = dose: 400.0 mg/kg/injection, schedule: Q01DX009 (ip), vehicle: Klucel (hydroxypropylcellulose) (HPC)

Measured: T/C

N#CCSc1ncnc2nc[nH]c12
inactive: dose: 15.0 mg/kg/injection, schedule: Q01DX010 (ip), vehicle: saline 94 % of control and 116 % of control | dose: 30.0 mg/kg/injection, schedule: Q01DX010 (ip), vehicle: saline 97 % of control and 110 % of control | dose: 50.0 mg/kg/injection, schedule: Q01DX001 (ip), vehicle: carboxymethylcellulose (CMC) 107 % of control | dose: 60.0 mg/kg/injection, schedule: Q01DX010 (ip), vehicle: saline 118 % of control and 121 % of control | dose: 62.5 mg/kg/injection, schedule: Q01DX Z (ip), vehicle: carboxymethylcellulose (CMC) 109 % of control | dose: 76.0 mg/kg/injection, schedule: Q01DX001 (ip), vehicle: carboxymethylcellulose (CMC) 110 % of control | dose: 114.0 mg/kg/injection, schedule: Q01DX001 (ip), vehicle: carboxymethylcellulose (CMC) 107 % of control | dose: 171.0 mg/kg/injection, schedule: Q01DX001 (ip), vehicle: carboxymethylcellulose (CMC) 113 % of control | dose: 256.5 mg/kg/injection, schedule: Q01DX001 (ip), vehicle: carboxymethylcellulose (CMC) 123 % of control

CN=C(NC)c1ccc(NC(=NC)c2ccc(C(=NC)Nc3ccc(C(=NC)NC)cc3)cc2)cc1
inactive: dose: 0.5 mg/kg/injection, schedule: Q01DX Z (ip), vehicle: saline 96 % of control | dose: 0.8 mg/kg/injection, schedule: Q01DX Z (ip), vehicle: saline 94 % of control | dose: 1.2 mg/kg/injection, schedule: Q01DX Z (ip), vehicle: saline 100 % of control | dose: 1.7 mg/kg/injection, schedule: Q01DX Z (ip), vehicle: saline 105 % of control | dose: 1.77 mg/kg/injection, schedule: Q01DX Z (ip), vehicle: saline 98 % of control | dose: 2.66 mg/kg/injection, schedule: Q01DX Z (ip), vehicle: saline 104 % of control | dose: 4.0 mg/kg/injection, schedule: Q01DX Z (ip), vehicle: saline 89 % of control | dose: 6.0 mg/kg/injection, schedule: Q01DX Z (ip), vehicle: saline 93 % of control and 103 % of control

O=C(CSc1cc(Cl)c(Cl)cc1Cl)Nc1ccc(Cl)cc1Cl
inactive: dose: 100.0 mg/kg/injection, schedule: Q01DX001 (ip), vehicle: saline with Tween-80 87 % of control | dose: 200.0 mg/kg/injection, schedule: Q01DX001 (ip), vehicle: saline with Tween-80 93 % of control | dose: 400.0 mg/kg/injection, schedule: Q01DX001 (ip), vehicle: saline with Tween-80 93 % of control

CCCC[N+](CCCC)=c1cc(-c2ccc(Cl)cc2)ss1
inactive: dose: 100.0 mg/kg/injection, schedule: Q04DX003 (ip), vehicle: water 95 % of control | dose: 200.0 mg/kg/injection, schedule: Q04DX003 (ip), vehicle: water 96 % of control

COc1nc(N)nc2c1nnn2C1OC(CO)C(O)C1O (stereo unspecified)
inactive: dose: 44.0 mg/kg/injection, schedule: Q01DX001 (ip), vehicle: Klucel (hydroxypropylcellulose) (HPC) 108 % of control | dose: 66.0 mg/kg/injection, schedule: Q01DX001 (ip), vehicle: Klucel (hydroxypropylcellulose) (HPC) 103 % of control | dose: 150.0 mg/kg/injection, schedule: Q01DX001 (ip), vehicle: Klucel (hydroxypropylcellulose) (HPC) 122 % of control

O=[N+]([O-])c1cc(C(F)(F)F)cc([N+](=O)[O-])c1N/N=C/c1ccc(F)cc1
inactive: dose: 25.0 mg/kg/injection, schedule: Q01DX009 (ip), vehicle: saline with Tween-80 87 % of control | dose: 50.0 mg/kg/injection, schedule: Q01DX009 (ip), vehicle: saline with Tween-80 94 % of control | [1] 92 % of control and 89 % of control | dose: 400.0 mg/kg/injection, schedule: Q01DX009 (ip), vehicle: saline with Tween-80 86 % of control

CCCCCCCCCOC(=O)NC1c2ccccc2Oc2ccccc21
inactive: dose: 100.0 mg/kg/injection, schedule: Q01DX009 (ip), vehicle: acetone 93 % of control | [2] 98 % of control | [3] 98 % of control | [4] 88 % of control

O=C1C=CC(=O)N1c1ccc(Cl)cc1 (tested in a mixture with another compound)
inactive: dose: 100.0 mg/kg/injection, schedule: Q04DX003 (ip), vehicle: acetone 94 % of control | dose: 200.0 mg/kg/injection, schedule: Q04DX003 (ip), vehicle: acetone 103 % of control | dose: 400.0 mg/kg/injection, schedule: Q04DX003 (ip), vehicle: acetone 87 % of control

CC1(C)CC2(OC2c2ccccc2)C(C)(O)c2ccccc21 (stereo unspecified)
inactive: [5] 98 % of control | [6] 104 % of control | [7] 96 % of control

CCCCC(=O)c1ccc(Cl)cc1
inactive: [8] 103 % of control | [9] 111 % of control | [10] 104 % of control

CCCC(=O)C(CCN(C)C)c1ccccn1 (stereo unspecified)
inactive: dose: 44.0 mg/kg/injection, schedule: Q01DX Z (ip), vehicle: methylcellulose (MC) 94 % of control | dose: 66.0 mg/kg/injection, schedule: Q01DX Z (ip), vehicle: methylcellulose (MC) 107 % of control

O=C(O)CCCCCNC(=O)c1ccccc1
inactive: dose: 100.0 mg/kg/injection, schedule: Q01DX009 (ip), vehicle: Klucel (hydroxypropylcellulose) (HPC) 92 % of control | [2] 114 % of control | [11] 93 % of control | [3] 100 % of control | [12] 102 % of control | [4] 103 % of control

CSc1cccc(N2C(=O)C=CC2=O)c1
inactive: dose: 2.5 mg/kg/injection, schedule: Q04DX002 (ip), vehicle: Klucel (hydroxypropylcellulose) (HPC) 92 % of control | dose: 5.0 mg/kg/injection, schedule: Q04DX002 (ip), vehicle: Klucel (hydroxypropylcellulose) (HPC) 88 % of control | dose: 10.0 mg/kg/injection, schedule: Q04DX002 (ip), vehicle: Klucel (hydroxypropylcellulose) (HPC) 95 % of control and 97 % of control

Clc1nnc2c3ccccc3ccn12
inactive: dose: 100.0 mg/kg/injection, schedule: Q01DX001 (ip), vehicle: saline 96 % of control | dose: 200.0 mg/kg/injection, schedule: Q01DX001 (ip), vehicle: saline 98 % of control

CC#CC(C)(O)C(=O)OC (stereo unspecified)
inactive: dose: 100.0 mg/kg/injection, schedule: Q01DX001 (ip), vehicle: other 105 % of control | dose: 200.0 mg/kg/injection, schedule: Q01DX001 (ip), vehicle: other 98 % of control | dose: 400.0 mg/kg/injection, schedule: Q01DX001 (ip), vehicle: other 94 % of control

Cc1cc(C)c(S(=O)(=O)C(=O)/C=N/N)c(C)c1
inactive: dose: 100.0 mg/kg/injection, schedule: Q01DX001 (ip), vehicle: Klucel (hydroxypropylcellulose) (HPC) 96 % of control | [8] 98 % of control | dose: 200.0 mg/kg/injection, schedule: Q01DX001 (ip), vehicle: Klucel (hydroxypropylcellulose) (HPC) 100 % of control | [11] 91 % of control | [9] 98 % of control | dose: 400.0 mg/kg/injection, schedule: Q01DX001 (ip), vehicle: Klucel (hydroxypropylcellulose) (HPC) 94 % of control | [12] 93 % of control | [10] 96 % of control

CC(Oc1ccc(Br)cc1Br)C(=O)O (stereo unspecified)
inactive: [5] 93 % of control | [6] 93 % of control | [7] 95 % of control

NC(=S)NNC1CCCCC1
inactive: dose: 22.0 mg/kg/injection, schedule: Q01DX Z (ip), vehicle: methylcellulose (MC) 94 % of control | dose: 33.0 mg/kg/injection, schedule: Q01DX Z (ip), vehicle: methylcellulose (MC) 117 % of control | dose: 50.0 mg/kg/injection, schedule: Q01DX Z (ip), vehicle: methylcellulose (MC) 93 % of control

OC(CCl)COc1ccccc1 (stereo unspecified)
inactive: dose: 100.0 mg/kg/injection, schedule: Q01DX009 (sc), vehicle: olive oil, sesame oil, peanut oil 91 % of control | dose: 100.0 mg/kg/injection, schedule: Q04DX002 (sc), vehicle: olive oil, sesame oil, peanut oil 101 % of control | dose: 200.0 mg/kg/injection, schedule: Q01DX009 (sc), vehicle: olive oil, sesame oil, peanut oil 105 % of control | dose: 200.0 mg/kg/injection, schedule: Q04DX002 (sc), vehicle: olive oil, sesame oil, peanut oil 104 % of control | dose: 400.0 mg/kg/injection, schedule: Q01DX009 (sc), vehicle: olive oil, sesame oil, peanut oil 94 % of control | dose: 400.0 mg/kg/injection, schedule: Q04DX002 (sc), vehicle: olive oil, sesame oil, peanut oil 96 % of control

CCOc1ccc(OCC)cc1
inactive: [5] 101 % of control | [6] 101 % of control | [7] 94 % of control

CN(C(N)=S)c1ccccc1
inactive: [5] 101 % of control | [6] 102 % of control | [7] 104 % of control

Clc1ccc2c(NCCc3cnc[nH]3)ccnc2c1
inactive: [1] 94 % of control | dose: 200.0 mg/kg/injection, schedule: Q01DX009 (ip), vehicle: saline with Tween-80 94 % of control
